Test results: patent publication US6248718A, “Lesion-directed dry dosage forms of antibacterial agents for the treatment of acute mucosal infections of the oral cavity” (priority 1999, dated 2001)
Converted amounts (≈) assume the structure as drawn. “And” between values parts separate entries of the source, which are not always exact repeats. Equal values may be shown once. “Also recorded” adds a separate entry of the source. Where a name gives a salt, the structure may show the parent alone. Read-outs that look alike come from different tables or passages of the source.

Legend:
[1] = cited from earlier work
[2] = system: human salivary microbial flora; assay: Minimal total inhibition concentration of ciprofloxacin for human salivary microbial flora (Example XI); type: cell-based; conditions: 1 h, aerobic blood agar
Procedure: (§1) Source of human salivary flora: undiluted saliva freshly collected from the mouth of a healthy adult who had refrained from fluid or food intake for three hours after breakfast prior to saliva collection.
Antibacterial agent: Cipro (a member of the quinolone group) I.V. 200 mg in 20 ml (1%) for intravenous infusion. […] Division Bayer Corporation. Procedure:
1) An aliquot of 1 ml of the Cipro solution, 1%, was added to 1.5 ml to make a total volume of 2.5 ml, equivalent to a 4 mg/ml concentration of the antibacterial agent in saliva.
2) An aliquot of 0.2 ml of the 4 mg/ml Cipro salivary solution was pipetted out for serial double dilutions in saliva in test tubes to the final concentrations of 4, 2, 1, 0.5, 0.25 and 0.12 mg of Cipro per ml, respectively.
3) All tubes containing saliva with different concentrations of Cipro were incubated in 37 degrees Celsius for one hour.
4) At the end of the one-hour incubation, 0.1 ml of the salivary Cipro solution was pipetted from each test tube and inoculated on the surface of a blood agar plate. An aliquot of 0.1 ml saliva sample containing no Cipro was spread on the surface of a blood agar plate as control.
(§2) 5) After 18 hours of incubation in 37 degrees Celsius aerobically, the growth on the blood agar plates was inspected and compared for the presence or absence of bacterial colonies.

[3] = cited from earlier work; remark: listed apart in the source
[4] = Topical dry dosage treatment of minor aphthous ulcers, gingivitis and periodontal infections; type: in vivo, human; conditions: 50 mg dry dosage form, four times a day
From the text: The administration of the medicament depends upon the type of infection to be treated and the type and dosage of the antibacterial agent used. The appropriate antibacterial agent, dosage and treatment regimen can readily be determined by someone having ordinary skill in this art. […] Thorough tooth cleaning is advised prior to introduction of the medicament to an infected area.

[5] = system: human salivary microbial flora; assay: Minimal total inhibition concentration of tetracyclines for human salivary microbial flora (Example X); type: cell-based; conditions: for bacterial growth from treated saliva: 1 h, aerobic blood agar
Procedure: as §1
Antibacterial agent: Doxycycline cyclate (a tetracycline) for injection USP, equivalent to 100 mg Doxycycline (Fugusawa USA, Inc., Deerfield, IL 60015-2548. Procedure:
1) An adequate amount of saliva was added to the vial of doxycycline to make a total volume of suspension of 3.1 ml, equivalent to a 32 mg/ml concentration of the antibacterial agent.
2) An aliquot of 0.2 ml of the 32 mg/ml doxycycline salivary solution was pipetted out for serial double dilutions in saliva in test tubes to the final concentrations of 32, 16, 8, 4, 2, 1, 0.5, 0.25 and 0.12 mg of doxycycline per ml.
3) All tubes containing saliva with different concentrations of doxycycline were incubated in 37 degrees Celsius for one hour.
4) At the end of the one-hour incubation, 0.1 ml of the salivary doxycycline solution was pipetted from each test tube and inoculated on the surface of a blood agar plate. An aliquot of 0.1 ml saliva sample containing no antibacterial agent was spread on the surface of a blood agar plate as control.
as §2

[6] = Local concentration of oxytetracycline hydrochloride in saliva after a 50 mg troche; conditions: for peak concentration locally at the site of the ulcer: assuming troche is dissolved in 0.1 ml of saliva
From the text: The final concentrations of oxytetracycline in the control standard nutrient broth were 0.25 mcg/ml, 0.5 mcg/ml, 1.0 mcg/ml, 2.0 mcg/ml, 4.0 mcg/ml, and 8.0 mcg/ml. The final dilutions of saliva sample were 1/50,000, 1/100,000, 1/200,000, 1/400,000, 1/800,000 and 1/1,600,000 for the peak concentration test tubes and 1/4,000. 1/8,000, 1/16,000 and 1/32,000 for the trough concentration test tubes. The Staphylococcus aureus (ATCC 29213) was also used as the standard test microorganism.

[7] = Local concentration of penicillin in saliva after a troche containing 50 mg penicillin G; type: in vivo, human; conditions: assuming troche is dissolved in 0.1 ml of saliva
Procedure: The local concentration of penicillin in the saliva was determined as follows. […] This loculated pocket of saliva was not swallowed and was not to be diluted with excess saliva from other parts of the mouth for one hour. Two samples were taken for assay to determine the peak and trough local concentrations of penicillin during the one-hour duration of medicinal treatment. At the time when the troche was completely dissolved and one hour later, aliquots of 10 microliters were pipetted from this pocket of saliva solution at the site of medication, representing the peak level and the trough level of antibiotic concentration, and transferred into 10 ml of distilled water to make a 1:1.000 dilution and into 1 ml of distilled water to make a 1:100 dilution, respectively. The diluted saliva antibiotic solutions were passed through a sterile bacteria-filter to remove any bacterial or fungal contaminants of the oral flora.
For determination of the peak concentration, 1 ml of the bacteria-free filtrate was further diluted with 9 ml of nutrient broth to achieve a 1:10,000 dilution of the saliva. Then a serial two-fold dilution was made of this 1:10,000 diluted saliva sample with an equal volume of nutrient broth in a roll of test tubes to obtain a series of 1 ml aliquots of nutrient broth in which the saliva was diluted to 20,000, 40,000, 80,000, 160,000, 320,000, 640,000, 1,280,000 and 2,560,000 folds respectively. […] Thus the final dilutions of the saliva sample were in the range of 40,000 to 5,120,000 folds.
For determining the trough concentration, the entire 1 ml of the 1:100 diluted saliva filtrate was used to make the serial dilutions so that the final dilutions of saliva sample were in the range of 4,000 to 256,000 folds in the final test culture.
As control standards, a series of test tubes containing 1 ml of nutrient broth with varying concentrations of penicillin G potassium salt ranging from 0.1 units to 10 units/ml were similarly mixed with an equal volume of nutrient broth freshly inoculated with the standard tubes of Staphylococcus aureus. Both the test and control standard tubes were incubated at 37° C. for 18 hours. Among the test tubes showing no gross evidence of bacterial growth, the one containing the highest dilution of saliva and the one containing the least amount of penicillin G were considered as having the identical concentration of penicillin, i.e. the MIC of the staphylococcus aureus.

O=C1CCC(N2C(=O)c3ccccc3C2=O)C(=O)N1 (centres unmarked) [Thalidomide]
effectiveness of treatment ([1]; earlier treatments of oral infections / aphthous ulcers): effective in some HIV-infected patients
adverse effect ([1]; literature): teratogenic

O=C(O)c1cn(C2CC2)c2cc(N3CCNCC3)c(F)cc2c1=O [ciprofloxacin]
bacterial growth from treated saliva ([2]; 0.5 mg/ml): A few surviving or uninhibited bacteria grew into colonies
bacterial growth from treated saliva ([2]; 0.5, 0.25 and 0.12 mg/ml): Varying numbers of bacterial colonies were observed
bacterial growth from treated saliva ([2]; 1, 2 and 4 mg/ml): either destroyed or totally inhibited
bacterial growth from treated saliva ([2]; 1, 2 and 4 mg/ml, listed as Cipro): No bacterial colonies were observed

C[C@H]1c2cccc(O)c2C(O)=C2C(=O)[C@]3(O)C(O)=C(C(N)=O)C(=O)[C@@H](N(C)C)[C@@H]3[C@@H](O)[C@@H]21 [doxycycline hyclate]
peak serum level ([3]; intravenous injection of 100 mg): 2.5 µg/mL
peak serum level ([3]; intravenous injection of 200 mg): 2.6 µg/mL
peak serum level ([3]; oral 200 mg, fasting adults): 2.6 to 3 µg/mL
peak serum concentration ([3]; oral ingestion of 100, fasting adults): 1.5 to 2.1 µg/mL
patients with complete relief of pains within about 48 hours [4]: over 90%
time to complete relief of pains [4]: ≤ 48 h
bacterial growth from treated saliva ([5]; 0.5 mg/ml): A few surviving or uninhibited bacteria grew into colonies
bacterial growth from treated saliva ([5]; 0.5, 0.25 and 0.12 mg/ml): Varying numbers of bacterial colonies were observed
bacterial growth from treated saliva ([5]; 1, 2, 4, 8, 16, 32 mg/ml): No bacterial colonies were observed; also recorded: either destroyed or totally inhibited
MIC ([5]; read-out: minimal total inhibition concentration, human salivary microbial flora): ~1000 µg/mL (≈ 2250 µM)

CCCCCCCCCCCCCCCCCC(=O)O [magnesium stearate]
peak concentration locally at the site of the ulcer [6]: 10 mg/mL
initial concentration at the ulcer [7]: 10 mg/mL

CN(C)[C@@H]1C(=O)C(C(N)=O)=C(O)[C@@]2(O)C(=O)C3=C(O)c4c(O)cccc4[C@@](C)(O)[C@H]3[C@H](O)[C@@H]12 [oxytetracycline hydrochloride]
trough concentration in saliva ([6]; 50 mg oxytetracycline hydrochloride troche, one hour, 60 min, hydrochloride): 8 mg/mL
initial peak concentration in saliva ([6]; 50 mg oxytetracycline hydrochloride troche, two subjects, hydrochloride): 800 mg/mL and 400 to 800 mg/mL
peak concentration locally at the site of the ulcer [6]: 400 to 800 mg/mL

CN(C)[C@@H]1C(=O)C(C(N)=O)=C(O)[C@@]2(O)C(=O)C3=C(O)c4c(O)cccc4[C@@](C)(O)[C@H]3C[C@@H]12 [tetracycline HCL]
patients with complete relief of pains within about 48 hours [4]: over 90%
time to complete relief of pains [4]: ≤ 48 h
